Tests used:
Assay in all cases: relative viability (nuclei count vs DMSO), 5 days (fraction); higher = more cells survive
XMD13-2 + Linsitinib = compound: C1CC1C(=O)NC2=NNC3=C2C=CC(=C3)C4=CC(=CC=C4)C(=O)NC5CC5 [XMD13-2] + C[C@]1(O)C[C@@H](c2nc(-c3ccc4ccc(-c5ccccc5)nc4c3)c3c(N)nccn32)C1 [Linsitinib] (partner 1 µM)
Procedure, shortened: (§1)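 Lung cancer cell lines, seeded in 1536-well plates, were treated the following day by pin tool with a single drug or with five library-drug doses (not always all listed) in √10 steps on top of a fixed anchor-drug dose. Cells were fixed and nuclei stained in one step after 5 days, and nuclei were counted. Relative viability is the nuclei count for treated wells divided by that for vehicle wells, reported as medians of duplicate plates.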

XMD13-2 + Vorinostat = compound: C1CC1C(=O)NC2=NNC3=C2C=CC(=C3)C4=CC(=CC=C4)C(=O)NC5CC5 [XMD13-2] + O=C(CCCCCCC(=O)Nc1ccccc1)NO [Vorinostat] (partner 1 µM)
Procedure, shortened: as §1

Dasatinib + Navitoclax = compound: Cc1nc(Nc2ncc(C(=O)Nc3c(C)cccc3Cl)s2)cc(N2CCN(CCO)CC2)n1 [Dasatinib] + CC1(C)CCC(c2ccc(Cl)cc2)=C(CN2CCN(c3ccc(C(=O)NS(=O)(=O)c4ccc(N[C@H](CCN5CCOCC5)CSc5ccccc5)c(S(=O)(=O)C(F)(F)F)c4)cc3)CC2)C1 [Navitoclax] (partner 0.5 µM)
Procedure, shortened: as §1

XMD13-2 + Tozasertib = compound: C1CC1C(=O)NC2=NNC3=C2C=CC(=C3)C4=CC(=CC=C4)C(=O)NC5CC5 [XMD13-2] + Cc1cc(Nc2cc(N3CCN(C)CC3)nc(Sc3ccc(NC(=O)C4CC4)cc3)n2)n[nH]1 [Tozasertib] (partner 0.1 µM)
Procedure, shortened: as §1

| Cell Line | relative viability (XMD13-2 + Linsitinib; first compound 0.05 µM) | relative viability (XMD13-2 + Linsitinib; first compound 0.1581 µM) | relative viability (XMD13-2 + Linsitinib; first compound 0.5 µM) | relative viability (XMD13-2 + Linsitinib; first compound 1.581 µM) | relative viability (XMD13-2 + Linsitinib; first compound 5 µM) | relative viability (XMD13-2 + Vorinostat; first compound 0.05 µM) | relative viability (XMD13-2 + Vorinostat; first compound 0.1581 µM) | relative viability (XMD13-2 + Vorinostat; first compound 0.5 µM) | relative viability (XMD13-2 + Vorinostat; first compound 1.581 µM) | relative viability (XMD13-2 + Vorinostat; first compound 5 µM) | relative viability (Dasatinib + Navitoclax; first compound 0.005 µM) | relative viability (Dasatinib + Navitoclax; first compound 0.01581 µM) | relative viability (Dasatinib + Navitoclax; first compound 0.05 µM) | relative viability (Dasatinib + Navitoclax; first compound 0.1581 µM) | relative viability (Dasatinib + Navitoclax; first compound 0.5 µM) | relative viability (XMD13-2 + Tozasertib; first compound 0.05 µM) | relative viability (XMD13-2 + Tozasertib; first compound 0.1581 µM) | relative viability (XMD13-2 + Tozasertib; first compound 0.5 µM) | relative viability (XMD13-2 + Tozasertib; first compound 1.581 µM) | relative viability (XMD13-2 + Tozasertib; first compound 5 µM) |
| --- | --- | --- | --- | --- | --- | --- | --- | --- | --- | --- | --- | --- | --- | --- | --- | --- | --- | --- | --- | --- |
| NCI-H838 | 1.14 | 1.03 | 1.05 | 1.06 | 0.985 | 0.839 | 0.661 | 0.756 | 0.713 | 0.763 | 1.03 | 0.791 | 0.709 | 0.389 | 0.21 | 0.277 | 0.27 | 0.263 | 0.293 | 0.247 |
| NCI-H520 | 1.09 | 0.975 | 1.01 | 0.881 | 0.492 | 0.799 | 0.743 | 0.698 | 0.869 | 0.414 | 0.946 | 0.644 | 0.555 | 0.273 | 0.27 | 0.495 | 0.491 | 0.515 | 0.395 | 0.462 |
| NCI-H2347 | 0.973 | 0.951 | 0.973 | 0.924 | 0.972 | 0.565 | 0.619 | 0.765 | 0.562 | 0.661 | 0.875 | 0.692 | 0.467 | 0.285 | 0.228 | 0.559 | 0.577 | 0.727 | 0.487 | 0.517 |
| NCI-H441 | 0.771 | 0.415 | 0.558 | 0.64 | 0.398 | 0.854 | 1.01 | 0.97 | 0.87 | 0.839 | 0.579 | 0.544 | 0.456 | 0.241 | 0.135 | 0.808 | 0.652 | 0.608 | 0.591 | 0.53 |
| NCI-H1944 | 1.24 | 1.18 | 1.26 | 1.29 | 1.34 | 0.632 | 0.53 | 0.607 | 0.808 | 0.628 | 1.03 | 1.07 | 0.976 | 0.695 | 0.504 | 0.275 | 0.243 | 0.229 | 0.239 | 0.221 |
| NCI-H2405 | 0.936 | 0.975 | 0.958 | 0.939 | 1.03 | 1.08 | 0.934 | 1.04 | – | 0.965 | 0.684 | 0.424 | 0.254 | 0.165 | 0.116 | 0.788 | 0.645 | 0.801 | 0.707 | 0.712 |
| HCC-15 | 0.936 | 0.869 | 0.903 | 0.947 | 0.599 | 0.971 | 0.862 | 0.957 | 0.764 | 0.823 | 0.692 | 0.528 | 0.555 | 0.332 | 0.239 | 0.522 | 0.422 | 0.402 | 0.425 | 0.463 |

Reference: the supplement of paper PMC10307832
